Measurements taken from patent US20140073637A1, “AMINO-SUBSTITUTED-ALKYLOXY-BENZO[E]PYRIDO[4,3-B]INDOLE DERIVATIVES AS NEW POTENT KINASE INHIBITORS” (INSTITUT CURIE, priority 2011, published 2014).
Read-outs that look alike come from different tables or passages of the source.

Key:
[1] = test system: HeLa cells stably expressing aurora B-GFP; assay: Time-lapse of HeLa cells expressing aurora B-GFP; assay type: cell-based; conditions: 0.5 μM; continuous imaging
Experimental: FIG. 7A: Cells treated by either DMSO (CO: control) or C1 (0.5 μM) or C14 (0.5 μM) were continuously imaged with a ZEISS confocal microscope. […] Mitotic cells were found fluorescent and GFP was concentrated on the centromeres. In control conditions, centromere aligned at metaphase and upon anaphase ongoing fluorescence concentrates on the spindle and finally in the midbody (A, CO). The shape of the cells is visualized by white dotted lines.
HeLa cells expressing aurora B-GFP were treated by either C14 (0.5 μM) or C1 (0.5 μM) or DMSO (control; Co). Mitotic cells were continuously imaged under controlled conditions (37° C. and 5% CO2). The localisation of aurora B-GFP is represented and the elapsed time indicated in the three conditions (FIG. 7A). Control cells divided normally; Aurora B presented on the centromeres (FIG. 7A, CO, To and 10 min) was then transferred on microtubules (FIG. 7A, CO 45 min) and finally concentrated in the mid body (FIG. 7A, CO, 1 h). […] These cells escaped from mitosis without anaphase and gave rise to micronuclei (FIG. 7B, C1). In the presence of C14 (0.5 μM), chromosome aligned normally (FIG. 7B, C14 To) and aurora B-GFP was found accumulated in the mid-zone (FIG. 7B, C14, 18 min, 40 min and 2 h). Finally, these cells spread again without division (FIG. 7B, C14 4 h). […]

[2] = biological target: T1, CHK1 (Homo sapiens, UniProt O14757); assay: Kinase profiling in vitro at 1 μM; assay type: biochemical
T1 sequence (O14757 1-476): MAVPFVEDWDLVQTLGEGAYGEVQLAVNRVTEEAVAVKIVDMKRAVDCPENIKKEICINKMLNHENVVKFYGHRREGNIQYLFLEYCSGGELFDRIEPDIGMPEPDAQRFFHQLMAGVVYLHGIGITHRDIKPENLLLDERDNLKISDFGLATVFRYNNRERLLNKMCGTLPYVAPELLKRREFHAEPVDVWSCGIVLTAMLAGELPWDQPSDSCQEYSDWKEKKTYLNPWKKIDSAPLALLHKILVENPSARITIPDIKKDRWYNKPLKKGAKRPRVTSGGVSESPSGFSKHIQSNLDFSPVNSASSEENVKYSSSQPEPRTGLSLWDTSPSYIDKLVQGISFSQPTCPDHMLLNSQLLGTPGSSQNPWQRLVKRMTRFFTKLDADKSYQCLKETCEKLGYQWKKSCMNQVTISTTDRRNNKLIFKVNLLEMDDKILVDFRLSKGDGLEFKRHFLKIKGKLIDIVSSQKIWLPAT
Experimental: (§1) The specificity of C14 was tested, in vitro, against 121 kinases representative of the kinome. Assays run in duplicate, at the concentration of 1 μM, were performed by MRC (Dundee, UK). Results are represented in FIG. 1. The main targets are highlighted in FIG. 1B.
(§2) In addition, the percentage of remaining activity of recombinant kinases Aurora kinases A and B and Checkpoint kinases 1 and 2 at the concentration of 1 μM of C1, C2 and C14 have been determined.
(§3) The profiling was performed at the MRC (Dundee University), in duplicate, on a set of 121 kinases. The panel is representative of the major different classes of kinases. Compounds were used at the concentration of 1 μM. In vitro, IC50 were determined on recombinant kinases by Reaction biology Corp (USA).

[3] = biological target: Aurora B (Homo sapiens, UniProt Q96GD4); assay: Kinase profiling in vitro at 1 μM; assay type: biochemical
Experimental: as §1, §2, §3

[4] = biological target: Chk2 (Homo sapiens, UniProt O96017); assay: Kinase profiling in vitro at 1 μM; assay type: biochemical
Experimental: as §1, §2, §3

[5] = test system: SkHep1; assay: Cell viability test (CellTiter 96 AQueous One Solution); assay type: cell-based; conditions: Homo sapiens, SK-HEP1; SkHep1 (Liver cells); 72 h of treatment; read-out: IC50 (cell line viability)
Experimental: (§4) H358, H322 (lung cancer cells), U373 (glioblastomes) and HeLa ([…]) were grown in DMEM (1.5 g/L glucose) whereas HL60 (human myeloid cell line) cells were in RPMI 1640. U2OS (a human osteosarcoma cell line) cells were cultured in McCoy's Medium 5 A and liver cells (SK Hep 1) in DMEM (4 g/L glucose, (Gibco-Invitrogen). Media (Gibco-Invitrogen), were supplemented with 10% heat-inactivated foetal bovine serum (Gibco-Invitrogen), L-glutamine (2 mM), penicillin (100 UI/ml) and streptomycin (100 μg/ml).
(§5) Cell proliferation assays were conducted in 96 well culture plates. Assays were run in triplicate. Cell viability was estimated upon 72 h of treatment with varying concentrations of compound by addition of CellTiter 96Queous one Solution Reagent (Promega) directly to culture wells under conditions defined by the manufacturer.

[6] = test system: H322; assay: as above; assay type: cell-based; conditions: NCI-H322; H322 (Lung); 72 h of treatment; read-out: IC50 (cell line viability)
Experimental: as §4, §5

[7] = Chk1, compound at 1 μM, read-out: percentage of remaining activity of recombinant kinase
[8] = compound at 1 μM, read-out: percentage of remaining activity of recombinant kinase
[9] = 1 microMolar in vitro, read-out: Percent of remaining activity

Chain of Chk2 (O96017 whole entry, species assumed): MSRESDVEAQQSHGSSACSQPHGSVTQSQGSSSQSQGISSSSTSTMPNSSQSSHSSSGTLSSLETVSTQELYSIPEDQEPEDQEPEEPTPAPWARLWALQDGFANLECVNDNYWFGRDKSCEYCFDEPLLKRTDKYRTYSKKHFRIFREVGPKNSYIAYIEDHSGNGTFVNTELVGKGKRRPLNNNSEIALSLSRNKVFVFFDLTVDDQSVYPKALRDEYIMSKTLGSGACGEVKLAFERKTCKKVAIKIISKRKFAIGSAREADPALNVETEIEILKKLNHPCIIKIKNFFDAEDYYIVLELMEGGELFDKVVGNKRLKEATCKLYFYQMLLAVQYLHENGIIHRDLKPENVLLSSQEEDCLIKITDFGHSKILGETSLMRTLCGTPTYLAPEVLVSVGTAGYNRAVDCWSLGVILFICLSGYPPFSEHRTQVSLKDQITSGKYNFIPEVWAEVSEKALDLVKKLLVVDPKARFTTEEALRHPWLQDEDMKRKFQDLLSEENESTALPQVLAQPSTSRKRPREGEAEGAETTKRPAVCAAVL
Chain of Aurora B (Q96GD4 whole entry): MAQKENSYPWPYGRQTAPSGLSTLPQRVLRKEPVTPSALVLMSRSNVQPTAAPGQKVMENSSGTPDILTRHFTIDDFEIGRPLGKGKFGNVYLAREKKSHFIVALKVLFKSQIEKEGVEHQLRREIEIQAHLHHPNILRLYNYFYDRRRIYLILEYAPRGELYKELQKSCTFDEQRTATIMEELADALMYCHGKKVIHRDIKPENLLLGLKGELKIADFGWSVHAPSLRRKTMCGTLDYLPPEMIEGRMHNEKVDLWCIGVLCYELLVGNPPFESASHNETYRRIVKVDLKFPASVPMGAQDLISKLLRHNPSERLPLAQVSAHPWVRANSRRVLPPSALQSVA

| remaining activity at 1 µM [2, 7] | remaining activity at 1 µM [3, 8] | remaining activity at 1 µM [4, 8] | remaining activity at 1 µM ([2]; CHK1, 1 microMolar in vitro, read-out: Percent of remaining activity) | remaining activity at 1 µM [3, 9] | remaining activity at 1 µM [4, 9] | IC50 [6] | SMILES | impairment of mitosis (in words) [1] | IC50 [5] |
| --- | --- | --- | --- | --- | --- | --- | --- | --- | --- |
| 23% | 19% | 6% |  |  |  |  | CCc1c[nH]c(=O)c2c1[nH]c1ccc3cc(OC)ccc3c12 [Compound C1, reference compound] | prevented anaphase ongoing |  |
| 31% | 24% | 9% | 31% | 24% | 9% | > 4000 nM | Cc1c[nH]c(=O)c2c1[nH]c1ccc3cc(OCCN(C)C)ccc3c12 [Compound C14, 3-(2-N,N-Dimethylaminoethoxy)-8-methyl-7H,10H-benzo[e]pyrido(4,3-b)indol-11-one] | affected cytokinesis | 2000 nM |
|  |  |  |  |  |  | 800 nM | Cc1cncc2c1[nH]c1ccc3cc(OCCN(C)C)ccc3c12 [CH21, 3-(2-N,N-dimethylaminoethyloxy)-8-methyl-7H-benzo[e]pyrido(4,3-b)indole] |  | 450 nM |
